Assay results as given in US12459951B2, “Compounds that interact with RAS superfamily proteins for treatment of cancers, inflammatory diseases, rasopathies, and fibrotic disease” (SHY Therapeutics, LLC, priority 2022, dated 2025).

Key:
TNF-alpha = TNF-alpha Quantification Assay (ELISA), LPS-stimulated RAW 264.7; type: cell-based; conditions: Mus musculus, RAW264.7; at 10 μM; read-out: TNFα: % inh.
KRas wild type = assay: Ras GTP Binding Domain Inhibition Assay (Ras Superfamily Assay); conditions: for KRas wild type + SOS: % inh.: with SOS; for KRas wild type: % inh.: without SOS
Summary of the method: (§1)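 Ni-plate capture of His-tagged protein (10-30 μg/mL, o/n 4° C); cpd 20 μM or dilution series, 1% DMSO, 3 h RT ± Sos 556-1049 last h; 100 nM Cy-labelled GTP 45 min RT; 3× wash; fluorescence read.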

KRas G12D mutant = assay: as above; conditions: for KRas G12D mutant + SOS: % inh.: with SOS; for KRas G12D mutant: % inh.: without SOS
Summary of the method: as §1

Rac-1 = target: T1, Rac-1 (Homo sapiens, UniProt P63000); assay: as above; conditions: read-out: Rac-1: % inh.
T1 construct: made in house
Summary of the method: as §1

[1] = test system: Smad2/Smad3 phosphorylation; assay: Phospho-Smad2/3 Inhibition Assay (western blot), Panc-1; type: cell-based, human; conditions: at 10 μM, Panc-1 pancreatic cancer cell line; starred symbols = activation
Summary of the method: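 Panc-1 cells (KRas G12D), starved overnight in 0.5% FBS, treated 3 h at 37° C with compound at 10 μM final (0.3% DMSO) or serial dilutions for IC50, then stimulated with 10 ng/ml TGF-b1 for 1 h. Phospho-Smad2 (Ser465/467) and phospho-Smad3 (Ser423/425) detected by western blot.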

Row | SMILES | KRas wild type + SOS: % inh. (KRas wild type; 20 μM compound) | KRas wild type: % inh. (KRas wild type; 20 μM compound) | KRas G12D mutant + SOS: % inh. (KRas G12D mutant; 20 μM compound) | KRas G12D mutant: % inh. (KRas G12D mutant; 20 μM compound) | inhibition at 20 µM (Rac-1) [%] | KRas wild type + SOS: % inh. (KRas wild type; at 20 μM) | KRas wild type: % inh. (KRas wild type; at 20 μM) | KRas G12D mutant + SOS: % inh. (KRas G12D mutant; at 20 μM) | KRas G12D mutant: % inh. (KRas G12D mutant; at 20 μM) | inhibition at 10 µM (TNF-alpha) [%] | % inh of Smad2/3 phosphorylation in Panc-1 [1]
1 | Cc1c(-c2ccn(C)n2)cn2nc(-c3nccn3C)nc(O)c12 [Compound 172, 5-Methyl-2-(1-methyl-1H-imidazol-2-yl)-6-(1-methyl-1H-pyrazol-3-yl)pyrrolo[2,1-f][1,2,4]triazin-4-ol] | B (B = 26-49% inhibition) | B (B = 26-49% inhibition) | B (B = 26-49% inhibition) | B (B = 26-49% inhibition) | 26 to 49 | – | – | – | – | 0 | A (A = 1-25% inhibition)
2 | COc1ccnc(Nc2nc(-c3nccn3C)nn3cc(-c4ccn(C)n4)c(C(=O)NCC(F)(F)F)c23)c1 [Compound 174, 4-((4-Methoxypyridin-2-yl)amino)-2-(1-methyl-1H-imidazol-2-yl)-6-(1-methyl-1H-pyrazol-3-yl)-N-(2,2,2-trifluoro-ethyl)pyrrolo[2,1-f][1,2,4]triazine-5-carboxamide] | B (B = 26-49% inhibition) | B (B = 26-49% inhibition) | B (B = 26-49% inhibition) | B (B = 26-49% inhibition) | 50 to 75 | – | – | – | – | 0 | A* (A* = 1-25% activation)
3 | COCCNC(=O)c1c(-c2ccn(C)n2)cn2nc(-c3nccn3C)nc(Nc3cc(OC)ccn3)c12 [Compound 176, N-(2-Methoxyethyl)-4-((4-methoxypyridin-2-yl)amino)-2-(1-methyl-1H-imidazol-2-yl)-6-(1-methyl-1H-pyrazol-3-yl)pyrrolo[2,1-f][1,2,4]triazine-5-carboxamide] | D (D = 76-100% inhibition) | D (D = 76-100% inhibition) | D (D = 76-100% inhibition) | D (D = 76-100% inhibition) | 76 to 100 | – | – | – | – | 0 | B (B = 26-45% inhibition)
4 | COc1ccnc(Nc2nc(-c3nccn3C)nn3cc(-c4ccn(C)n4)c(C(=O)NCCN(C)C)c23)c1 [Compound 177, N-(2-(Dimethylamino)ethyl)-4-((4-methoxypyridin-2-yl)amino)-2-(1-methyl-1H-imidazol-2-yl)-6-(1-methyl-1H-pyrazol-3-yl)pyrrolo[2,1-f][1,2,4]triazine-5-carboxamide] | D (D = 76-100% inhibition) | D (D = 76-100% inhibition) | D (D = 76-100% inhibition) | C (C = 50-75% inhibition) | 76 to 100 | – | – | – | – | 0 | A (A = 1-25% inhibition)
5 | COc1ccnc(Nc2nc(-c3nccn3C)nn3cc(-c4ccn(C)n4)c(C(=O)N4CCCC4)c23)c1 [Compound 178, (4-((4-Methoxypyridin-2-yl)amino)-2-(1-methyl-1H-imidazol-2-yl)-6-(1-methyl-1H-pyrazol-3-yl)pyrrolo[2,1-f][1,2,4]triazin-5-yl)(pyrrolidin-1-yl)methanone] | D (D = 76-100% inhibition) | D (D = 76-100% inhibition) | D (D = 76-100% inhibition) | D (D = 76-100% inhibition) | 76 to 100 | – | – | – | – | 0 | B* (B* = 26-45% activation)
6 | COc1ccnc(Nc2nc(-c3nccn3C)nn3cc(-c4ccn(C)n4)c(C(=O)N4CCOCC4)c23)c1 [Compound 179, (4-((4-Methoxypyridin-2-yl)amino)-2-(1-methyl-1H-imidazol-2-yl)-6-(1-methyl-1H-pyrazol-3-yl)pyrrolo[2,1-f][1,2,4]triazin-5-yl)(morpho-lino)methanone] | D (D = 76-100% inhibition) | D (D = 76-100% inhibition) | D (D = 76-100% inhibition) | D (D = 76-100% inhibition) | 76 to 100 | – | – | – | – | 0 | C* (C* = 46-75% activation)
7 | Cc1c(-c2ccn(C)n2)cn2nc(-c3nccn3C)nc(Nc3cc(OCCNC(=O)CCCC[C@H]4SC[C@H]5NC(=O)N[C@H]54)ccn3)c12 [Compound 186, N-(2-((2-((5-Methyl-2-(1-methyl-1H-imidazol-2-yl)-6-(1-methyl-1H-pyrazol-3-yl)pyrrolo[2,1-f][1,2,4]triazin-4-yl)amino)pyridin-4-yl)oxy)ethyl)-5-((3aR,4R,6aS)-2-oxohexahydro-1H-thieno[3,4-d]imidazol-4-yl)pentanamide] | D (D = 76-100% inhibition) | D (D = 76-100% inhibition) | D (D = 76-100% inhibition) | D (D = 76-100% inhibition) | 76 to 100 | – | – | – | – | 1 to 24 | D* (D* = 76-100% activation)
8 | COc1ccnc(Nc2nc(-c3nccn3CCN)nn3cc(-c4ccn(C)n4)c(C)c23)c1 [Compound 188, 2-(1-(2-Aminoethyl)-1H-imidazol-2-yl)-N-(4-methoxypyridin-2-yl)-5-methyl-6-(1-methyl-1H-pyrazol-3-yl)pyrrolo[2,1-f][1,2,4]triazin-4-amine] | – | – | – | – | 76 to 100 | D (D = 76-100% inhibition) | D (D = 76-100% inhibition) | D (D = 76-100% inhibition) | D (D = 76-100% inhibition) | 0 | B (B = 26-45% inhibition)

Continued, in another order:

Row | KRas wild type + SOS: % inh. (KRas wild type; 20 μM compound) | KRas wild type: % inh. (KRas wild type; 20 μM compound) | KRas G12D mutant + SOS: % inh. (KRas G12D mutant; 20 μM compound) | KRas G12D mutant: % inh. (KRas G12D mutant; 20 μM compound) | inhibition at 20 µM (Rac-1) [%] | KRas wild type + SOS: % inh. (KRas wild type; at 20 μM) | KRas wild type: % inh. (KRas wild type; at 20 μM) | KRas G12D mutant + SOS: % inh. (KRas G12D mutant; at 20 μM) | KRas G12D mutant: % inh. (KRas G12D mutant; at 20 μM) | SMILES | inhibition at 10 µM (TNF-alpha) [%] | % inh of Smad2/3 phosphorylation in Panc-1 [1]
9 | B (B = 26-49% inhibition) | A (A = 1-25% inhibition) | A (A = 1-25% inhibition) | A (A = 1-25% inhibition) | 1 to 25 | – | – | – | – | CO[C@H]1C[C@H](Nc2nc(-c3nccn3C)nn3cc(-c4cccnc4)c(-c4cccnc4)c23)C1 [Compound 171, N-((1r,3r)-3-Methoxycyclobutyl)-2-(1-methyl-1H-imidazol-2-yl)-5,6-di(pyridin-3-yl)pyrrolo[2,1-f][1,2,4]triazin-4-amine] | 0 | B (B = 26-45% inhibition)
10 | D (D = 76-100% inhibition) | C (C = 50-75% inhibition) | C (C = 50-75% inhibition) | B (B = 26-49% inhibition) | 50 to 75 | – | – | – | – | CCNC(=O)c1c(-c2ccn(C)n2)cn2nc(-c3nccn3C)nc(Nc3cc(OC)ccn3)c12 [Compound 173, N-Ethyl-4-((4-methoxypyridin-2-yl)amino)-2-(1-methyl-1H-imidazol-2-yl)-6-(1-methyl-1H-pyrazol-3-yl)pyrrolo[2,1-f][1,2,4]triazine-5-carboxamide] | 0 | D* (D* = 76-100% activation)
11 | D (D = 76-100% inhibition) | D (D = 76-100% inhibition) | D (D = 76-100% inhibition) | C (C = 50-75% inhibition) | 26 to 49 | – | – | – | – | COc1ccnc(Nc2nc(-c3nccn3C)nn3cc(-c4ccn(C)n4)c(C(=O)NC4CC4)c23)c1 [Compound 175, N-Cyclopropyl-4-((4-methoxypyridin-2-yl)amino)-2-(1-methyl-1H-imidazol-2-yl)-6-(1-methyl-1H-pyrazol-3-yl)pyrrolo[2,1-f][1,2,4]triazine-5-carboxamide] | 0 | B* (B* = 26-45% activation)
12 | – | – | – | – | 76 to 100 | D (D = 76-100% inhibition) | D (D = 76-100% inhibition) | D (D = 76-100% inhibition) | D (D = 76-100% inhibition) | COc1ccnc(Nc2nc(-c3nccn3C)nn3cc(-c4ccn(CCN)n4)c(C)c23)c1 [Compound 187, 6-(1-(2-Aminoethyl)-1H-pyrazol-3-yl)-N-(4-methoxypyridin-2-yl)-5-methyl-2-(1-methyl-1H-imidazol-2-yl)pyrrolo[2,1-f][1,2,4]triazin-4-amine] | 1 to 24 | A* (A* = 1-25% activation)
13 | – | – | – | – | 1 to 25 | 0 (0 = 0% inhibition) | 0 (0 = 0% inhibition) | A (A = 1-25% inhibition) | A (A = 1-25% inhibition) | Cn1ccnc1-c1nc(O)c2c(-c3ccccc3)c(-c3cccnc3)cn2n1 [Compound 189, 2-(1-Methyl-1H-imidazol-2-yl)-5-phenyl-6-(pyridin-3-yl)pyrrolo[2,1-f][1,2,4]triazin-4-ol] | 1 to 24 | B (B = 26-45% inhibition)
